The Deep4Chem optical property database
Where “and” joins values, the source holds several entries; their conditions need not be identical. Equal entries are not always repeated.

Test: solvent given as SMILES

## CCCC1=Cc2nc1ccc1[nH]c(cc1CCOC)c1nc(ccc3[nH]c2cc3CCC)C(CCOC)=C1
In Cc1ccccc1
  emission maximum: 642 nm

## O=C(c1ccncc1)c1ccc(-n2c3ccccc3c3ccccc32)cc1
In Cc1ccccc1
  emission maximum: 440 nm
In c1cc(-c2cccc(-n3c4ccccc4c4ccccc43)c2)cc(-n2c3ccccc3c3ccccc32)c1
  emission maximum: 457.34 nm

## CCN(CC)c1ccc2cc(-c3nc4ccccc4s3)c(=O)oc2c1
In C1CCCCC1
  emission maximum: 462 nm
In CC1CCCCC1
  emission maximum: 462 nm
In CC#N
  emission maximum: 501 nm and 506.6 nm
In CCC(C)CC
  emission maximum: 461.6 nm
In CCCCCC
  emission maximum: 463 nm
In CCO
  emission maximum: 505 nm
In CCOC(C)=O
  emission maximum: 492.8 nm

## COc1ccc(-c2nc(/C(C#N)=C/c3ccc(Cl)cc3)sc2-c2ccc(OC)cc2)cc1
In CC#N
  emission maximum: 553 nm

## c1cc2c3c(cccc3c1)-c1c-2c2ccccc2c2ccccc12
In CCCCCCC
  emission maximum: 536 nm

## COC(=O)/C=C/c1ccc2ccc3cccc4ccc1c2c34
In C1CCOC1
  emission maximum: 425.5 nm
In C1COCCO1
  emission maximum: 422.5 nm
In C=CC#N
  emission maximum: 447.5 nm
In CC#N
  emission maximum: 450 nm
In CC(C)=O
  emission maximum: 438 nm
In CCCCCC
  emission maximum: 406.5 nm
In CCOC(C)=O
  emission maximum: 423 nm
In CO
  emission maximum: 462.5 nm
In Cc1ccccc1
  emission maximum: 423 nm
In ClCCl
  emission maximum: 442 nm

## CCN(CC)c1ccc2c(-c3ccccc3C(=O)O)c3c([o+]c2c1)/C(=C/C=C/c1ccc(N(C)C)cc1)CCC3
In ClCCl
  emission maximum: 857 nm

## O=C(N/N=C/c1ccccc1O)c1ccccc1
In C1CCOC1
  emission maximum: 306 nm
In CC#N
  emission maximum: 373 nm
In CC(C)=O
  emission maximum: 426 nm
In CCO
  emission maximum: 429 nm
In CN(C)C=O
  emission maximum: 458 nm
In CS(C)=O
  emission maximum: 552 nm
In ClCCl
  emission maximum: 392 nm

## Clc1ccc(N2c3sc4ccccc4c3Sc3c2sc2ccccc32)cc1
In ClCCl
  emission maximum: 546 nm

## c1ccc(N(c2ccccc2)c2ccc(-c3cnc(-c4ccc(N(c5ccccc5)c5ccccc5)cc4)s3)cc2)cc1
In CO
  emission maximum: 488 nm

## COC(=O)c1c(-c2cc3ccccc3oc2=O)nn(-c2ccc(Br)cc2)c1C(=O)OC
In ClCCl
  emission maximum: 401 nm

## CCCCCCc1ccc(-n2c3[n+](c4c5ccccc5c5ccccc5c42)[B-](C)(C)c2ccccc2-3)cc1
In C1CCOC1
  emission maximum: 384 nm
In CC#N
  emission maximum: 385 nm
In Cc1ccccc1
  emission maximum: 385 nm
In ClCCl
  emission maximum: 385 nm

## ClP1(Cl)=NP(Cl)(Cl)=NP(Cl)(Oc2ccc3ccc4cccc5ccc2c3c45)=N1 (stereo not given)
In ClCCl
  emission maximum: 417 nm

## CCCCCCOc1ccc(N(c2ccc(OCCCCCC)cc2)c2ccc(-c3sc(-c4ccc(N(c5ccc(OCCCCCC)cc5)c5ccc(OCCCCCC)cc5)cc4)c4nc(CC)c(CC)nc34)cc2)cc1
In ClCCl
  emission maximum: 725 nm

## O=C(O)C1=C(C(=O)O)C2=C[C@H]3c4ccccc4[C@]2([Se]1)c1ccccc13
In ClCCl
  emission maximum: 507 nm

## CC(C)[Si](C#Cc1ccc(C#C[Si](C(C)C)(C(C)C)C(C)C)c2nc3c4ccccc4c(=O)c4ccccc4c3nc12)(C(C)C)C(C)C
In ClCCl
  emission maximum: 455 nm

## Cc1c2ccc3c(C)[n+](C)ccc3c2cc[n+]1C
In CC#N
  emission maximum: 408 nm

## CC1(C)c2ccccc2N(c2ccccc2)c2ccc(-c3ccc(-c4ccc5c(c4)C(C)(C)c4ccccc4N5c4ccccc4)c4nsnc34)cc21
In Cc1ccccc1
  emission maximum: 596.02 nm
In c1ccc2c(c1)c1ccccc1n2-c1ccc(-c2ccc(-n3c4ccccc4c4ccccc43)cc2)cc1
  emission maximum: 588 nm

## c1cc2ccc1CCCc1cc3c(cc1CCCc1ccc(c4nsnc14)CCC3)CCC2
In C1CCCCC1
  emission maximum: 496 nm
In CC#N
  emission maximum: 534 nm
In ClC(Cl)Cl
  emission maximum: 531 nm

## CCCCCCc1ccc2c3c(ccc2c1)O[B-](F)(F)[N+](c1cc([N+]2=Cc4c(ccc5cc(CCCCCC)ccc45)O[B-]2(F)F)cc([N+]2=Cc4c(ccc5cc(CCCCCC)ccc45)O[B-]2(F)F)c1)=C3
In C1CCOC1
  emission maximum: 490 nm
In CC#N
  emission maximum: 495 nm
In Cc1ccccc1
  emission maximum: 493 nm
In ClCCl
  emission maximum: 495 nm

## CCCCCCCCOc1ccc(-c2c3c4n(c(-c5ccc(OCCCCCCCC)cc5)c3c3n2[B-](c2ccccc2)(c2ccccc2)[n+]2c(ccc5cc(C(C)(C)C)ccc52)C=3C#N)[B-](c2ccccc2)(c2ccccc2)[n+]2c(ccc3cc(C(C)(C)C)ccc32)C=4C#N)cc1
In ClC(Cl)Cl
  emission maximum: 831 nm

## Oc1cc(-c2cccs2)ccc1-c1nc2ccccc2s1
In CCO
  emission maximum: 408 nm
In ClCCl
  emission maximum: 515 nm
In O
  emission maximum: 517 nm

## O=c1ccc2ccc(C#Cc3ccccc3)cc2o1
In CC#N
  emission maximum: 364 nm

## CC(C)(C)c1ccc2c3ccccc3c3cncnc3c2c1
In ClCCl
  emission maximum: 376 nm

## COc1ccc(-c2nnc(-c3cc(-n4c5ccccc5c5ccccc54)c(-n4c5ccccc5c5ccccc54)cc3-c3nnc(-c4ccc(OC)cc4)o3)o2)cc1
In CC#N
  emission maximum: 515.81 nm
In Cc1ccccc1
  emission maximum: 459 nm
In ClCCl
  emission maximum: 487.92 nm
